Measurements: patent publication US7473688B2, “Indolobenzazepine HCV NS5B inhibitors” (Bristol-Myers Squibb Company, priority 2005, dated 2009)
pEC50, pIC50: −log10 of the molar value. Like-named read-outs stand apart in the source and are kept apart here.

How the values were obtained:
HCV NS5B = target: T1, HCV NS5B (Hepatitis C virus genotype 1b, UniProt Q9WMX2); test: HCV NS5B RdRp enzyme assay (preincubation protocol); type: biochemical; conditions: Table 1, read-out: IC50*
T1 construct: The protein was expressed with an 18 amino acid C-terminal truncation to enhance the solubility; made in house; host or cells: E. coli BL21 (DE3), pET21a
T1 sequence (Q9WMX2 2420-2992): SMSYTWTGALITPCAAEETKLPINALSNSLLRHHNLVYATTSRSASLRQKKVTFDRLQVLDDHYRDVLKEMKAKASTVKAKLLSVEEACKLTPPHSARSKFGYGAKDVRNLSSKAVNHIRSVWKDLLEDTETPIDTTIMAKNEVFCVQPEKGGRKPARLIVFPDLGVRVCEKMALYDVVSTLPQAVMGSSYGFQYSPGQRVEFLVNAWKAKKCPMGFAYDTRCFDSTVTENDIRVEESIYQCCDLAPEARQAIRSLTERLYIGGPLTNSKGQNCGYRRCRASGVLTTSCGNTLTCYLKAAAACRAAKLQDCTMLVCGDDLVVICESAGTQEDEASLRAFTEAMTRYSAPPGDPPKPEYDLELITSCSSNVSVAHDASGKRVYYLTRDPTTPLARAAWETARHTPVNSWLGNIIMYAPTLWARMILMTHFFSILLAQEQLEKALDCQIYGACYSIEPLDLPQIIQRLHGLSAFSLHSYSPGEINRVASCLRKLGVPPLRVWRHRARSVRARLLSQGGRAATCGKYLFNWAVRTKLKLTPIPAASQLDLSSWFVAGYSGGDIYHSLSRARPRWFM
Outline: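 C-terminally truncated (Δ18) genotype 1b NS5B from E. coli, 14 nM, added to compound, then polyA template (0.2 nM), 3H-UTP (0.29 μM) and oligo-dT12 primer precaptured on streptavidin SPA beads. 4 h at 30 °C, pH 7.5, 2% DMSO; SPA readout; IC50 from seven concentrations by logistic fit.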

HCV replicon = HCV replicon FRET assay; type: cell-based; conditions: Hepatitis C virus
Description: FRET Assay Preparation. To perform the HCV FRET screening assay, 96-well cell culture plates were used. The FRET peptide (Anaspec, Inc.) (Taliani et al., Anal. Biochem. 1996, 240, 60-67) contains a fluorescence donor, EDANS, near one end of the peptide and an acceptor, DABCYL, near the other end. The fluorescence of the peptide is quenched by […] resonance energy transfer (RET) between the donor and the acceptor, but as the NS3 protease cleaves the peptide the products are released from RET quenching and the fluorescence of the donor becomes apparent. The assay reagent was made as follows: 5× cell Luciferase cell culture lysis reagent from Promega (#E153A) diluted to 1× with dH2O, NaCl added to 150 mM final, the FRET peptide diluted to 20 uM final from a 2 mM stock.
To prepare plates, HCV replicon cells, with or without a Renilla luciferase reporter gene, were trypsinized and placed into each well of a 96-well plate with titrated test compounds added in columns 3 through 12; columns 1 and 2 contained a control compound (HCV protease inhibitor), and the bottom row contained cells without compound. The plates were then placed in a CO2 incubator at 37° C.
Assays. Subsequent to addition of the test compounds described above (FRET Assay Preparation), at various times the plate was removed and Alamar blue solution (Trek Diagnostics, #00-100) was added per well as a measure of cellular toxicity. After reading in a Cytoflour 4000 instrument (PE Biosystems), plates were rinsed with PBS and then used for FRET assay by the addition of 30 ul of the FRET peptide assay reagent described above (FRET Assay Preparation) per well. The plate was then placed into the Cytoflour 4000 instrument which had been set to 340 excite/490 emission, automatic mode for 20 cycles and the plate read in a kinetic mode. Typically, the signal to noise using an endpoint analysis after the reads was at least three-fold. Alternatively, after Alamar blue reading, plates were rinsed with PBS, 50 ul of DMEM (high glucose) without phenol red was added and plates were then used for luciferase assay using the Promega Dual-Glo Luciferase Assay System.
Compound analysis was determined by quantification of the relative HCV replicon inhibition and the relative cytotoxicity values. To calculate cytoxicity values, the average Alamar Blue fluorescence signals from the control wells were set as 100% non-toxic. The individual signals in each of the compound test wells were then divided by the average control signal and multiplied by 100% to determine […]. To calculate the HCV replicon inhibition values, an average background value was obtained from the two wells containing the highest amount of HCV protease inhibitor at the end of the assay period. These numbers were similar to those obtained from naïve Huh-7 cells.
The background numbers were then subtracted from the average signal obtained from the control wells and this number was used as 100% activity. The individual signals in each of the compound test wells were then divided by the averaged control values after background subtraction and multiplied by 100% to determine percent activity. EC50 values for a protease inhibitor titration were calculated as the concentration which caused a 50% reduction in FRET or luciferase activity. The two numbers generated for the compound plate, percent cytoxicity and percent activity were used to determine compounds of interest for further analysis.

[1] = Table 1, FRET assay, read-out: EC50*

SMILES | pIC50 (HCV NS5B) | pEC50 (HCV replicon; [1]) | pEC50 (HCV replicon)
CN(C)S(=O)(=O)NC(=O)c1ccc2c(C3CCCCC3)c3n(c2c1)CC(C(=O)N1CCN(C(=O)c2ccccc2)CC1)=Cc1ccccc1-3 | 6.00 to 8.00 | 6.00 to 7.15 | –
C[C@@H]1CN(C(=O)c2ccccc2)CCN1C(=O)C1=Cc2ccccc2-c2c(C3CCCCC3)c3ccc(C(=O)NS(=O)(=O)N(C)C)cc3n2C1 | 6.00 to 8.00 | 6.00 to 7.15 | –
CN(C)S(=O)(=O)NC(=O)c1ccc2c(C3CCCCC3)c3n(c2c1)CC(C(=O)N1CCN2C(=O)c4ccccc4C2C1)=Cc1ccccc1-3 (centres unmarked) | 6.00 to 8.00 | 6.00 to 7.15 | –
O=C(NCc1cnn[nH]1)c1ccc2c(C3CCCCC3)c3n(c2c1)CC(C(=O)N1CCOCC1)=Cc1ccccc1-3 | 6.00 to 8.00 | 6.00 to 7.15 | –
C[C@@H]1CN(C(=O)C2=Cc3ccccc3-c3c(C4CCCCC4)c4ccc(C(=O)NCCN5CCOCC5)cc4n3C2)C[C@H](C)O1 | 6.00 to 8.00 | 5.00 to 6.00 | –
C[C@@H]1CN(C(=O)C2=Cc3ccccc3-c3c(C4CCCCC4)c4ccc(C(=O)NCCN(C)C)cc4n3C2)C[C@H](C)O1 | 6.00 to 8.00 | 5.00 to 6.00 | –
Cn1ncc(CNC(=O)c2ccc3c(C4CCCCC4)c4n(c3c2)CC(C(=O)N2CCOCC2)=Cc2ccccc2-4)n1 | 6.00 to 8.00 | 5.00 to 6.00 | –
O=C(O)c1ccc2c(C3CCCCC3)c3n(c2c1)CC(C(=O)Nn1cnnc1)Cc1ccccc1-3 (centres unmarked) | 6.00 to 8.00 | < 5.00 | –
COC(=O)c1ccc2c(C3CCCCC3)c3n(c2c1)CC(C(=O)N(C)CC1CCCN(C)C1)Cc1ccccc1-3 (centres unmarked) | 6.00 to 8.00 | 6.00 to 7.15 | –
CN1CCCC(CN(C)C(=O)C2Cc3ccccc3-c3c(C4CCCCC4)c4ccc(C(=O)O)cc4n3C2)C1 (centres unmarked) | 6.00 to 8.00 | 6.00 to 7.15 | –
CN1CCCC(CN(C)C(=O)C2Cc3ccccc3-c3c(C4CCCCC4)c4ccc(C(=O)NS(=O)(=O)N(C)C)cc4n3C2)C1 (centres unmarked) | 6.00 to 8.00 | > 7.70 | –
COC(=O)c1ccc2c(C3CCCCC3)c3n(c2c1)CC(C(=O)N(C)CC1CCCN(C)C1)=Cc1ccccc1-3 (centres unmarked) | 6.00 to 8.00 | 5.00 to 6.00 | –
CN1CCCC(CN(C)C(=O)C2=Cc3ccccc3-c3c(C4CCCCC4)c4ccc(C(=O)N(C)CC5CCCN(C)C5)cc4n3C2)C1 (centres unmarked) | 6.00 to 8.00 | 5.00 to 6.00 | –
CN1CCCC(CN(C)C(=O)C2=Cc3ccccc3-c3c(C4CCCCC4)c4ccc(C(=O)O)cc4n3C2)C1 (centres unmarked) | 6.00 to 8.00 | 6.00 to 7.15 | –
CN1CCCC(CN(C)C(=O)C2=Cc3ccccc3-c3c(C4CCCCC4)c4ccc(C(=O)NS(=O)(=O)N(C)C)cc4n3C2)C1 (centres unmarked) | 6.00 to 8.00 | 6.00 to 7.15 | –
O=C(Nc1nccs1)C1=Cc2ccccc2-c2c(C3CCCCC3)c3ccc(C(=O)O)cc3n2C1 | 6.00 to 8.00 | 5.00 to 6.00 | –
O=C(O)c1ccc2c(C3CCCCC3)c3n(c2c1)CC(C(=O)N1C2CCC1CC2)=Cc1ccccc1-3 | 6.00 to 8.00 | – | 6.00 to 7.15
CN(C)S(=O)(=O)NC(=O)c1ccc2c(C3CCCCC3)c3n(c2c1)CC(C(=O)N1C2CCC1CC2)=Cc1ccccc1-3 | 6.00 to 8.00 | – | 6.00 to 7.15
COC(=O)c1ccc2c(C3CCCCC3)c3n(c2c1)CC(C(=O)N1CC2(CCN(C)CC2)C1)=Cc1ccccc1-3 | < 6.00 | 5.00 to 6.00 | –
CN1CCC2(CC1)CN(C(=O)C1=Cc3ccccc3-c3c(C4CCCCC4)c4ccc(C(=O)O)cc4n3C1)C2 | 6.00 to 8.00 | 6.00 to 7.15 | –

SMILES | pIC50 (HCV NS5B) | pEC50 (HCV replicon; [1]) | pEC50 (HCV replicon)
CN(C)S(=O)(=O)NC(=O)c1ccc2c(C3CCCCC3)c3n(c2c1)CC(C(=O)Nc1nccs1)=Cc1ccccc1-3 | 6.00 to 8.00 | 6.00 to 7.15 | –
CN(C)S(=O)(=O)NC(=O)c1ccc2c(C3CCCCC3)c3n(c2c1)CC(C(=O)N1C[C@@H]2C[C@H]1CN2C(=O)OC(C)(C)C)=Cc1ccccc1-3 | 6.00 to 8.00 | 6.00 to 7.15 | –
CN(C)S(=O)(=O)NC(=O)c1ccc2c(C3CCCCC3)c3n(c2c1)CC(C(=O)N1C[C@@H]2C[C@H]1CO2)=Cc1ccccc1-3 | 6.00 to 8.00 | 6.00 to 7.15 | –
CCN(C(C)=O)C1CCN(C(=O)C2=Cc3ccccc3-c3c(C4CCCCC4)c4ccc(C(=O)NS(=O)(=O)N(C)C)cc4n3C2)C1 (centres unmarked) | 6.00 to 8.00 | 6.00 to 7.15 | –
CN(CCC1OCCO1)C(=O)C1=Cc2ccccc2-c2c(C3CCCCC3)c3ccc(C(=O)NS(=O)(=O)N(C)C)cc3n2C1 | 6.00 to 8.00 | 6.00 to 7.15 | –
COC[C@H]1CCCN1C(=O)C1=Cc2ccccc2-c2c(C3CCCCC3)c3ccc(C(=O)NS(=O)(=O)N(C)C)cc3n2C1 | 6.00 to 8.00 | 6.00 to 7.15 | –
COCCN(CCOC)C(=O)C1=Cc2ccccc2-c2c(C3CCCCC3)c3ccc(C(=O)NS(=O)(=O)N(C)C)cc3n2C1 | 6.00 to 8.00 | 6.00 to 7.15 | –
COCCN(C)C(=O)C1=Cc2ccccc2-c2c(C3CCCCC3)c3ccc(C(=O)NS(=O)(=O)N(C)C)cc3n2C1 | 6.00 to 8.00 | 6.00 to 7.15 | –
CN(C)S(=O)(=O)NC(=O)c1ccc2c(C3CCCCC3)c3n(c2c1)CC(C(=O)N1CCC(CNC(=O)c2ccccc2)C1)=Cc1ccccc1-3 (centres unmarked) | 6.00 to 8.00 | 6.00 to 7.15 | –
CN(C)S(=O)(=O)NC(=O)c1ccc2c(C3CCCCC3)c3n(c2c1)CC(C(=O)NC1CCOCC1)=Cc1ccccc1-3 | 6.00 to 8.00 | 6.00 to 7.15 | –
COC(=O)c1ccc2c(C3CCCCC3)c3n(c2c1)CC(NC(=O)N1CCOCC1)Cc1ccccc1-3 (centres unmarked) | < 6.00 | < 6.92 | –
O=C(O)c1ccc2c(C3CCCCC3)c3n(c2c1)CC(NC(=O)N1CCOCC1)Cc1ccccc1-3 (centres unmarked) | 6.00 to 8.00 | 6.00 to 7.15 | –
COC(=O)c1ccc2c(C3CCCCC3)c3n(c2c1)CC(C(=O)N1CCC(C(N)=O)C1)=Cc1ccccc1-3 (centres unmarked) | < 6.00 | 5.00 to 6.00 | –
NC(=O)C1CCN(C(=O)C2=Cc3ccccc3-c3c(C4CCCCC4)c4ccc(C(=O)O)cc4n3C2)C1 (centres unmarked) | 6.00 to 8.00 | 5.00 to 6.00 | –
CN(C)S(=O)(=O)NC(=O)c1ccc2c(C3CCCCC3)c3n(c2c1)CC(C(=O)N1CCC(N2CCOCC2)CC1)=Cc1cc(O)ccc1-3 | 6.00 to 8.00 | 6.00 to 7.15 | –
COC(=O)c1ccc2c(C3CCCCC3)c3n(c2c1)CC(NC(=O)N1C[C@@H](C)O[C@@H](C)C1)Cc1ccccc1-3 (some centres unmarked) | < 6.00 | < 6.92 | –
CC(=O)N(C)C1CCN(C(=O)C2=Cc3ccccc3-c3c(C4CCCCC4)c4ccc(C(=O)NS(=O)(=O)N(C)C)cc4n3C2)C1 (centres unmarked) | 6.00 to 8.00 | 6.00 to 7.15 | –
CN(C)C(=O)[C@@H]1CCCN1C(=O)C1=Cc2ccccc2-c2c(C3CCCCC3)c3ccc(C(=O)NS(=O)(=O)N(C)C)cc3n2C1 | 6.00 to 8.00 | 6.00 to 7.15 | –
CN(C)S(=O)(=O)NC(=O)c1ccc2c(C3CCCCC3)c3n(c2c1)CC(C(=O)N1CCC(Oc2ncccn2)CC1)=Cc1ccccc1-3 | 6.00 to 8.00 | 6.00 to 7.15 | –
CN(C)S(=O)(=O)NC(=O)c1ccc2c(C3CCCCC3)c3n(c2c1)CC(C(=O)N1CCOC(c2ccccc2)C1)=Cc1ccccc1-3 (centres unmarked) | 6.00 to 8.00 | 5.00 to 6.00 | –
